Measured values reported in patent US20240109865A1, “INDAZOLE COMPOUNDS AS KINASE INHIBITORS” (TYRA BIOSCIENCES, INC., priority 2020, published 2024).

How the values were obtained:
Assay in all cases: Kinase assay, binding constants (Kd), kinase-tagged T7 phage, qPCR
[1] = biological target: FGFR3 (V555M) (Homo sapiens (Human), UniProt P22607, V555M); conditions: V555M mutant
Summary of the method: (§1)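 Competition binding: T7 phage-tagged kinase + biotin-ligand beads + compound (11 pts, 3-fold, 0.9% DMSO). Elution 30 min RT with free ligand; qPCR quantitation. Kd via Hill fit, slope −1.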

[2] = biological target: FGFR3 (Homo sapiens (Human), UniProt P22607)
FGFR3, sequence (P22607 23-806): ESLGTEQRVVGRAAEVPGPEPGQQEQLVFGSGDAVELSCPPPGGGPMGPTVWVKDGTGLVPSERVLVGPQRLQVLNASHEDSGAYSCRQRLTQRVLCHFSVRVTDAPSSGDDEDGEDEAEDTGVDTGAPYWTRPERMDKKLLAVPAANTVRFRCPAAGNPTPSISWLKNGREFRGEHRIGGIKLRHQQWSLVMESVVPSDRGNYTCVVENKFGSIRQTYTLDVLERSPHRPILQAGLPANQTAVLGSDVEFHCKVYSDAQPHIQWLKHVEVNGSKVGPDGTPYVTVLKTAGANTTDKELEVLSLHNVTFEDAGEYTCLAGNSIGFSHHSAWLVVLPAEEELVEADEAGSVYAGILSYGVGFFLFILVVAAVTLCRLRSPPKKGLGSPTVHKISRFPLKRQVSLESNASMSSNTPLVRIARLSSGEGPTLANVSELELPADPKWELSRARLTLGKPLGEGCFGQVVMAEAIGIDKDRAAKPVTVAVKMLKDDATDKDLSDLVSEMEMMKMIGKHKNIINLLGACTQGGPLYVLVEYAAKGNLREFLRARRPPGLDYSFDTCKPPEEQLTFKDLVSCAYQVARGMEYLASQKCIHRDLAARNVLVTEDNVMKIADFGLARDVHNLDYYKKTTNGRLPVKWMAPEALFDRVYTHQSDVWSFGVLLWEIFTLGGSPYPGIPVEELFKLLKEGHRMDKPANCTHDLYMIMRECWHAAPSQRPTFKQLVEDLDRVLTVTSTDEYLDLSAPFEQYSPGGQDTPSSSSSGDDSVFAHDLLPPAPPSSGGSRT
Summary of the method: as §1

[3] = biological target: FGFR2 (Homo sapiens (Human), UniProt P21802)
FGFR2, sequence (P21802 22-821): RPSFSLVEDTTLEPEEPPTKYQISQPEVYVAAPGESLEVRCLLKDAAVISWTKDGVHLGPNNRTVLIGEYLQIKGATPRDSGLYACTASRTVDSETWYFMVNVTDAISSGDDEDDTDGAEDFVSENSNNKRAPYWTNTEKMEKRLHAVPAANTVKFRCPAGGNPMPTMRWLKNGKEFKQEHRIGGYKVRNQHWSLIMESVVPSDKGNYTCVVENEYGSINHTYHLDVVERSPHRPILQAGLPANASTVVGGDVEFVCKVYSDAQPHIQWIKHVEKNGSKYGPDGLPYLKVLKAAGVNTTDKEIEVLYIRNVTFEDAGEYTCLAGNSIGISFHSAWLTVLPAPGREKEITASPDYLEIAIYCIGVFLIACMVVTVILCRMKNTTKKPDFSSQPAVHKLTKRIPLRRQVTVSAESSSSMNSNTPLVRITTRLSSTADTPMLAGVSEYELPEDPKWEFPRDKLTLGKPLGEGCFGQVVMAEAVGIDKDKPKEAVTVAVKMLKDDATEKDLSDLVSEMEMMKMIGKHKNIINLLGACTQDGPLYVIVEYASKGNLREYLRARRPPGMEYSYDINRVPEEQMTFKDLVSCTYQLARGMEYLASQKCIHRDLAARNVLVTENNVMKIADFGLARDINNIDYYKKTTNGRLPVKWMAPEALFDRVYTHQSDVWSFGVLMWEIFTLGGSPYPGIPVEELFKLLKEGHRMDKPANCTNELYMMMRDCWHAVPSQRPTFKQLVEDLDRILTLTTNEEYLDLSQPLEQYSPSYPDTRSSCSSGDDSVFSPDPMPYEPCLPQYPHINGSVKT
Summary of the method: as §1

[4] = biological target: FGFR1 (Homo sapiens (Human), UniProt P11362)
FGFR1, sequence (P11362 22-822): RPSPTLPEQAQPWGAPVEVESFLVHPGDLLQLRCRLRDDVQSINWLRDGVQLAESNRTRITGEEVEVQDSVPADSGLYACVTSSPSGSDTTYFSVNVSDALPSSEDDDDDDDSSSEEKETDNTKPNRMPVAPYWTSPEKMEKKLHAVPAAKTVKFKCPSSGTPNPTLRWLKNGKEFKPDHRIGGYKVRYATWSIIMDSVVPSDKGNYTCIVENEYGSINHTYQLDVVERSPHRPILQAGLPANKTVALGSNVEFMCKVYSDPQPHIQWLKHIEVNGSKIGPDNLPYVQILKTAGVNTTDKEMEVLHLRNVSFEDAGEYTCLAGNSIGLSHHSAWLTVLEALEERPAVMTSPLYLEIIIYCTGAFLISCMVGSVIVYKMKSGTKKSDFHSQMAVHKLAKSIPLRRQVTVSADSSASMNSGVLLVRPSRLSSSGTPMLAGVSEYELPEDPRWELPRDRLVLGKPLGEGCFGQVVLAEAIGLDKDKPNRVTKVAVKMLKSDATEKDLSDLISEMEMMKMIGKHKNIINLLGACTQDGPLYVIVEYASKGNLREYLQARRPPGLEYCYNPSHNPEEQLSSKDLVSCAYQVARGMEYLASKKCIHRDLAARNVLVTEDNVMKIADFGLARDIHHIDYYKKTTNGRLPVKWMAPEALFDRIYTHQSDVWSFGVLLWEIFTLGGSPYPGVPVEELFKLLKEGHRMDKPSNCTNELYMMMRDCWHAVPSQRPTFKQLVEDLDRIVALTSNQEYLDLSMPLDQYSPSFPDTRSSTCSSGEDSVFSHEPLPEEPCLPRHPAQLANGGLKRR
Summary of the method: as §1

[5] = biological target: FGFR4 (Homo sapiens (Human), UniProt P22455)
FGFR4, sequence (P22455 22-802): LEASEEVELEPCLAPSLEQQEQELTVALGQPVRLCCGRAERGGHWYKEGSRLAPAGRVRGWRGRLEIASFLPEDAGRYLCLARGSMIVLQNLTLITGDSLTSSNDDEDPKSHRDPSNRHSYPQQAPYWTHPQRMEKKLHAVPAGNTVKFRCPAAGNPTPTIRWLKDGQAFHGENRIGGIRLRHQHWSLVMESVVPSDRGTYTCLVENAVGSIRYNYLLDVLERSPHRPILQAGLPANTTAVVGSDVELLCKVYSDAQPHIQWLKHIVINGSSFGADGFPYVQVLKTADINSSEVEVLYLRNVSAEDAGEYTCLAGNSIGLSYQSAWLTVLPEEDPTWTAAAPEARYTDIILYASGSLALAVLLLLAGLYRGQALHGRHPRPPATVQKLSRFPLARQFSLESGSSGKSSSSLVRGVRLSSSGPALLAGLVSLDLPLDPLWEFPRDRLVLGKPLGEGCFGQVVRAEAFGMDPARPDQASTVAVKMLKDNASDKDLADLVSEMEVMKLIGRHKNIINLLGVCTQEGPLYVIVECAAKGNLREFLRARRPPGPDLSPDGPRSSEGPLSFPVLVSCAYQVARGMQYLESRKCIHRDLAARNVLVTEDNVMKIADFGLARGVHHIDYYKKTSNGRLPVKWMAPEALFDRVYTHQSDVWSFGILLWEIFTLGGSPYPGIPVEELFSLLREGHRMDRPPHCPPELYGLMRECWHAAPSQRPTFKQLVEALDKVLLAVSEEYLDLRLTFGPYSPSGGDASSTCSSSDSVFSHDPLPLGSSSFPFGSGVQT
Summary of the method: as §1

FGFR3 (V555M), sequence (P22607 23-806 V555M): as the sequence (P22607 23-806) above, with V533M counted along it

Kd [1] [nM]	Kd [2] [nM]	Kd [3] [nM]	Kd [4] [nM]	Kd [5] [nM]	SMILES
1 to 20	1 to 20	20 to 100	20 to 100	1 to 20	Cc1ncc(Cl)c([C@@H](C)Oc2ccc3[nH]nc(-c4ccc(N5CC(C)(O)C5)nc4)c3c2)c1Cl [Example 222, 1-[5-[5-[(1R)-1-(3,5-dichloro-2-methyl-4-pyridyl)ethoxy]-1H-indazol-3-yl]-2-pyridyl]-3-methyl-azetidin-3-ol]
1 to 20	1 to 20	20 to 100	1 to 20	1 to 20	C[C@@H](Oc1ccc2[nH]nc(-c3ccc(N4CC5(CN(CC(F)(F)F)C5)C4)nc3)c2c1)c1c(Cl)cncc1Cl [Example 224, (R)-5-(1-(3,5-dichloropyridin-4-yl)ethoxy)-3-(6-(6-(2,2,2-trifluoroethyl)-2,6-diazaspiro[3.3]heptan-2-yl)pyridin-3-yl)-1H-indazole]
1 to 20	1 to 20	1 to 20	20 to 100	1 to 20	Cc1ncc(Cl)c([C@@H](C)Oc2ccc3[nH]nc(-c4ccc(N5CCN6C(=O)CCC6C5)nc4)c3c2)c1Cl (stereo partly drawn) [Example 225, 2-[5-[5-[(1R)-1-(3,5-dichloro-2-methyl-4-pyridyl)ethoxy]-1H-indazol-3-yl]-2-pyridyl]-1,3,4,7,8,8a-hexahydropyrrolo[1,2-a]pyrazin-6-one]
1 to 20	1 to 20	20 to 100	20 to 100	20 to 100	Cc1ncc(Cl)c([C@@H](C)Oc2ccc3[nH]nc(-c4ccc(N5CC6(CCCO6)C5)nc4)c3c2)c1Cl [Example 226, 2-[5-[5-[(1R)-1-(3,5-dichloro-2-methyl-4-pyridyl)ethoxy]-1H-indazol-3-yl]-2-pyridyl]-5-oxa-2-azaspiro[3.4]octane]
1 to 20	1 to 20	1 to 20	20 to 100	1 to 20	Cc1ncc(Cl)c([C@@H](C)Oc2ccc3[nH]nc(-c4ccc(N5CC6(CC(O)C6)C5)nc4)c3c2)c1Cl [Example 227, 2-[5-[5-[(1R)-1-(3,5-dichloro-2-methyl-4-pyridyl)ethoxy]-1H-indazol-3-yl]-2-pyridyl]-2-azaspiro[3.3]heptan-6-ol]
1 to 20	1 to 20	1 to 20	1 to 20	1 to 20	COc1cc2[nH]nc(-c3ccc(N4CCN5C(=O)NCC5C4)nc3)c2cc1O[C@H](C)c1c(C)cnnc1C (stereo partly drawn) [Example 228, 7-(5-(5-((R)-1-(3,5-dimethylpyridazin-4-yl)ethoxy)-6-methoxy-1H-indazol-3-yl)pyridin-2-yl)hexahydroimidazo[1,5-a]pyrazin-3(2H)-one]
20 to 100	20 to 100	100 to 300	> 300	> 300	C[C@@H](Oc1ccc2[nH]nc(-c3ccc(N4CC5(COC5)C4)nc3)c2c1)c1c(Cl)cnnc1Cl [Example 229, (R)-6-(5-(5-(1-(3,5-dichloropyridazin-4-yl)ethoxy)-1H-indazol-3-yl)pyridin-2-yl)-2-oxa-6-azaspiro[3.3]heptane]
1 to 20	1 to 20	1 to 20	1 to 20	1 to 20	C[C@@H](Oc1ccc2[nH]nc(-c3ccc(N4CC5(CN(CC(F)F)C5)C4)nc3)c2c1)c1c(Cl)cncc1Cl [Example 230, (R)-5-(1-(3,5-dichloropyridin-4-yl)ethoxy)-3-(6-(6-(2,2-difluoroethyl)-2,6-diazaspiro[3.3]heptan-2-yl)pyridin-3-yl)-1H-indazole]
1 to 20	1 to 20	1 to 20	20 to 100	1 to 20	Cc1cc(-c2n[nH]c3ccc(O[C@H](C)c4c(C)cnnc4C)cc23)cnc1N1CCN2C(=O)NCC2C1 (stereo partly drawn) [Example 231, 7-(5-(5-((R)-1-(3,5-dimethylpyridazin-4-yl)ethoxy)-1H-indazol-3-yl)-3-methylpyridin-2-yl)hexahydroimidazo[1,5-a]pyrazin-3(2H)-one]
1 to 20	1 to 20	20 to 100	20 to 100	1 to 20	Cc1ncc(Cl)c([C@@H](C)Oc2ccc3[nH]nc(-c4ccc(N5CCC[C@@H]5CO)nc4)c3c2)c1Cl [Example 232, [(2R)-1-[5-[5-[(1R)-1-(3,5-dichloro-2-methyl-4-pyridyl)ethoxy]-1H-indazol-3-yl]-2-pyridyl]pyrrolidin-2-yl]methanol]
20 to 100	20 to 100	100 to 300	> 300	> 300	C[C@@H](Oc1ccc2[nH]nc(-c3ccc(N4CC5(C4)CN(S(C)(=O)=O)C5)nc3)c2c1)c1c(Cl)cnnc1Cl [Example 233, (R)-5-(1-(3,5-dichloropyridazin-4-yl)ethoxy)-3-(6-(6-(methylsulfonyl)-2,6-diazaspiro[3.3]heptan-2-yl)pyridin-3-yl)-1H-indazole]
1 to 20	1 to 20	100 to 300	100 to 300	1 to 20	Cc1cc(-c2n[nH]c3ccc(O[C@H](C)c4c(Cl)cnc(C)c4Cl)cc23)cnc1N1CC(CO)(CO)C1 [Example 234, [1-[5-[5-[(1R)-1-(3,5-dichloro-2-methyl-4-pyridyl)ethoxy]-1H-indazol-3-yl]-3-methyl-2-pyridyl]-3-(hydroxymethyl)azetidin-3-yl]methanol]
1 to 20	1 to 20	100 to 300	100 to 300	1 to 20	Cc1cc(-c2n[nH]c3ccc(O[C@H](C)c4c(Cl)cnc(C)c4Cl)cc23)cnc1N1CC2(C1)CN(S(C)(=O)=O)C2 [Example 235, 5-[(1R)-1-(3,5-dichloro-2-methyl-4-pyridyl)ethoxy]-3-[5-methyl-6-(2-methylsulfonyl-2,6-diazaspiro[3.3]heptan-6-yl)-3-pyridyl]-1H-indazole]
1 to 20	1 to 20	1 to 20	20 to 100	1 to 20	C[C@@H](Oc1ccc2[nH]nc(-c3ccc(N4CCC[C@@H]4CO)nc3)c2c1)c1c(Cl)cncc1Cl [Example 236, ((R)-1-(5-(5-((R)-1-(3,5-dichloropyridin-4-yl)ethoxy)-1H-indazol-3-yl)pyridin-2-yl)pyrrolidin-2-yl)methanol]
1 to 20	1 to 20	1 to 20	1 to 20	1 to 20	C[C@@H](Oc1ccc2[nH]nc(-c3ccc(N4CCC[C@H]4CO)nc3)c2c1)c1c(Cl)cncc1Cl [Example 237, ((S)-1-(5-(5-((R)-1-(3,5-dichloropyridin-4-yl)ethoxy)-1H-indazol-3-yl)pyridin-2-yl)pyrrolidin-2-yl)methanol]
1 to 20	1 to 20	20 to 100	20 to 100	1 to 20	COC1CC2(C1)CN(c1ccc(-c3n[nH]c4ccc(O[C@H](C)c5c(Cl)cnc(C)c5Cl)cc34)cn1)C2 [Example 238, 5-[(1R)-1-(3,5-dichloro-2-methyl-4-pyridyl)ethoxy]-3-[6-(6-methoxy-2-azaspiro[3.3]heptan-2-yl)-3-pyridyl]-1H-indazole]
1 to 20	1 to 20	1 to 20	1 to 20	1 to 20	COc1cc2[nH]nc(-c3cnc(N4CC5(C4)CN(S(C)(=O)=O)C5)nc3)c2cc1O[C@H](C)c1c(Cl)cncc1Cl [Example 239, 5-[(1R)-1-(3,5-dichloro-4-pyridyl)ethoxy]-6-methoxy-3-[2-(2-methylsulfonyl-2,6-diazaspiro[3.3]heptan-6-yl)pyrimidin-5-yl]-1H-indazole]
